From ChEMBL document CHEMBL3259599, “Novel colchicine-site binders with a cyclohexanedione scaffold identified through a ligand-based virtual screening approach” (J Med Chem, 2014)
Calls of active or inactive are those of the source. No cut-off for these calls is given here.

Columns and labels:
HeLa = assay: Antiproliferative activity against human HeLa cells after 4 days by coulter counter analysis; format: functional, cell-based; conditions: 96 h
[1] = Antiproliferative activity against BAEC after 3 days by coulter counter analysis; format: functional; conditions: Bos taurus, 72 h
L1210 = assay: Antiproliferative activity against mouse L1210 cells after 48 to 96 hrs by coulter counter analysis; format: functional, cell-based
CCRF-CEM = assay: Antiproliferative activity against human CEM cells after 48 to 96 hrs by coulter counter analysis; format: functional, cell-based
[2] = Antiproliferative activity against MBEC after 3 days by coulter counter analysis; format: functional, Mus musculus
[3] = Antiproliferative activity against HMEC1 after 4 days by coulter counter analysis; format: functional; conditions: Homo sapiens, HMEC-1, 96 h
[4] = Cell cycle arrest in HMEC1 cells assessed as accumulation at subG1 phase at 1 uM after 24 hrs by propidium iodide staining-based flow cytometric analysis; format: functional; conditions: Homo sapiens, HMEC-1
[5] = Cell cycle arrest in HMEC1 cells assessed as accumulation at G2/M phase at 1 uM after 24 hrs by propidium iodide staining-based flow cytometric analysis; format: functional; conditions: Homo sapiens, HMEC-1
Tubulin (Bos taurus) [6] = biological target: T1, Tubulin (Bos taurus) (UniProt Q6B856+Q862L2+Q862F3); assay: Displacement of R-PT from calf brain tubulin at 25 degC by fluorescence spectroscopic analysis
Tubulin (Bos taurus) [7] = biological target: T1, Tubulin (Bos taurus); assay: Displacement of MTC from calf brain tubulin colchicine binding site at 20 uM by fluorescence spectroscopic analysis
Rattus norvegicus = organism: Rattus norvegicus; assay: Binding affinity to rat brain tubulin at 37 degC after 1 to 2 mins by DEAE cellulose filter paper method
Tubulin (Homo sapiens) = Tubulin (Homo sapiens) (UniProt P68371+Q9H4B7+P0DPH7+P68366+Q13509+Q71U36+P04350+Q3ZCM7+P07437+P68363+Q9BQE3+Q6PEY2+Q13885+Q9BVA1+Q9BUF5)
Description: Binding affinity to tubulin (unknown origin)

[8] = Cell cycle arrest in HMEC1 cells assessed as accumulation at G2/M phase at 0.03 uM after 24 hrs by propidium iodide staining-based flow cytometric analysis; format: functional; conditions: Homo sapiens, HMEC-1
MDA-MB-231 [9] = assay: Competitive binding affinity to beta-tubulin in human MDA-MB-231 cells assessed as inhibition of protein-N/N'-ethylene-bis(iodoacetamide) adduct formation at 0.5 uM preincubated for 16 hrs followed by N/N'-ethylene-bis(iodoacetamide) formation measured after 1.5 hrs by Western blot analysis; format: cell-based
[10] = Cell cycle arrest in HMEC1 cells assessed as accumulation at subG1 phase at 0.03 uM after 24 hrs by propidium iodide staining-based flow cytometric analysis; format: functional; conditions: Homo sapiens, HMEC-1
MDA-MB-231 [11] = assay: Antiproliferative activity against human MDA-MB-231 cells at 0.08 uM after 17 hrs; format: functional, cell-based
MDA-MB-231 [12] = assay: Antiinvasive activity against human MDA-MB-231 cells at 0.08 uM after 17 hrs by Transwell assay; format: functional, cell-based
MDA-MB-231 [13] = assay: Antimigratory activity against human MDA-MB-231 cells at 0.08 uM after 17 hrs by Transwell assay; format: functional, cell-based
HMEC-1 = assay: Antivascular activity in HMEC1 cells assessed as destruction of cord like structure at 0.3 to 1 uM after 90 mins by matrigel assay; format: functional, cell-based; conditions: Homo sapiens

SMILES | IC50 (HeLa) [µM] | IC50 [1] [µM] | IC50 (L1210) [µM] | IC50 (CCRF-CEM) [µM] | IC50 [2] [µM] | IC50 [3] [µM] | further results
COc1ccccc1NC(C)=C1C(=O)CC(c2ccc(F)cc2)CC1=O (stereo not drawn) | 4 | 1.7 | 3.3 | 5.3 | 2.1 | 1.8 | 
COc1ccccc1NC(C)=C1C(=O)CC(Cc2ccccc2)CC1=O (stereo not drawn) | > 100 | > 100 | > 100 | > 100 | 87 | 22 | 
COc1ccc(OC)c(NC(C)=C2C(=O)CC(c3ccccc3)CC2=O)c1 (stereo not drawn) | 46 | 2.6 | 36 | > 6 | 3.2 | 2.6 | 
CC(Nc1ccccc1F)=C1C(=O)CC(c2ccccc2)CC1=O (stereo not drawn) | 3.4 | 0.51 | 1.9 | 1.1 | 1 | 0.93 | 
COc1ccccc1NC(C)=C1C(=O)CC(c2ccc(Cl)cc2)CC1=O (stereo not drawn) | 58 | 42 | 22 | 28 | 46 | 55 | 
CC(Nc1ccccc1C)=C1C(=O)CC(c2ccccc2)CC1=O (stereo not drawn) | 0.48 | 0.17 | 0.3 | 0.68 | 0.32 | 0.26 | Activity [4]: Active; Activity [5]: Active
COc1ccccc1NC(C)=C1C(=O)CC(c2c(C)cccc2C)CC1=O (stereo not drawn) | 55 | 41 | 24 | 23 | 39 | 35 | 
COc1ccccc1NC(C)=C1C(=O)CC(c2c(F)cccc2F)CC1=O (stereo not drawn) | > 100 | > 100 | > 100 | > 100 | 60 | 39 | 
COc1ccccc1NC(C)=C1C(=O)CC(c2ccccc2F)CC1=O (stereo not drawn) | 4.8 | 2.7 | 6.3 | 4.9 | 5.4 | 4.3 | 
CCC(Nc1ccc2c(c1)OCO2)=C1C(=O)CC(c2ccccc2)CC1=O (stereo not drawn) | 76 | 43 | 38 | 53 | 50 | 53 | 
COc1ccccc1NC(C)=C1C(=O)CC(C)(C)CC1=O | > 100 | 48 | > 100 | > 100 | 71 | 76 | 
COc1ccccc1NC(C)=C1C(=O)CC(C2CCCCC2)CC1=O (stereo not drawn) | 11 | 12 | > 8 | 15 | 21 | 12 | 
CCC(Nc1ccc(OC)c(OC)c1)=C1C(=O)CC(c2ccccc2)CC1=O (stereo not drawn) | > 100 | > 100 | > 100 | > 100 | > 100 | > 100 | 
CC(Nc1ccccc1C)=C1C(=O)CC(c2cccc(O)c2)CC1=O (stereo not drawn) | 4.1 | 2.1 | 3.5 | 6.2 | 2.5 | 2.2 | 
COc1cccc(C2CC(=O)C(=C(C)Nc3ccccc3C)C(=O)C2)c1 (stereo not drawn) | 0.66 | 0.48 | 0.26 | 0.72 | 0.64 | 0.67 | 
CCC(Nc1cc(OC)c(OC)c(OC)c1)=C1C(=O)CC(c2ccccc2)CC1=O (stereo not drawn) | > 100 | > 100 | > 100 | > 100 | > 100 | > 100 | 
CCC(Nc1ccccc1C)=C1C(=O)CC(c2ccccc2)CC1=O (stereo not drawn) | 9.2 | 2.2 | 6.9 | 6.3 | 2.8 | 2.1 | 
CCC(Nc1ccccc1OC)=C1C(=O)CC(c2ccccc2)CC1=O (stereo not drawn) | 4.3 | 1.2 | 1.5 | 2.3 | 1.4 | 1.4 | Ka (Tubulin (Bos taurus) [6]): 7.1 ×10⁶ /M; inhibition (Tubulin (Bos taurus) [7]): Active
COc1ccccc1NC(C)=C1C(=O)CC(c2ccccc2C)CC1=O (stereo not drawn) | 13 | 3.2 | 11 | 7.2 | 6.8 | 5.8 | 

SMILES | IC50 (HeLa) [µM] | IC50 [1] [µM] | IC50 (L1210) [µM] | IC50 (CCRF-CEM) [µM] | IC50 [2] [µM] | IC50 [3] [µM] | further results
COc1cc([C@@H]2c3cc4c(cc3[C@H](O)[C@H]3COC(=O)[C@H]23)OCO4)cc(OC)c1OC |  |  |  |  |  |  | Ka (Rattus norvegicus): 1.8 ×10⁶ /M
CC(Nc1ccccc1C(F)(F)F)=C1C(=O)CC(c2ccccc2)CC1=O (stereo not drawn) | 32 | 8.1 | 14 | 18 | 8.7 | 7.7 | 
CCC(Nc1ccc(O)cc1)=C1C(=O)CC(c2ccccc2)CC1=O (stereo not drawn) | 79 | 36 | 14 | 34 | 18 | 28 | 
CCC(Nc1cccc(OC)c1)=C1C(=O)CC(c2ccccc2)CC1=O (stereo not drawn) | 66 | 64 | 32 | 45 | 16 | 18 | 
CCC(Nc1ccccc1)=C1C(=O)CC(c2ccccc2)CC1=O (stereo not drawn) | 56 | 16 | 22 | 21 | 8.3 | 15 | 
CCCC(Nc1ccccc1C)=C1C(=O)CC(c2ccccc2)CC1=O (stereo not drawn) | > 100 | 46 | 41 | ≥ 100 | 47 | 44 | 
COc1ccccc1NC(C)=C1C(=O)CC(c2cccc(C)c2)CC1=O (stereo not drawn) | 0.79 | 0.26 | 0.17 | 0.31 | 0.42 | 0.33 | 
CCC(Nc1ccc(OC)cc1)=C1C(=O)CC(c2ccccc2)CC1=O (stereo not drawn) | ≥ 100 | ≥ 100 | 58 | 67 | 57 | ≥ 100 | 
COC(=O)Nc1nc2cc(C(=O)c3cccs3)ccc2[nH]1 |  |  |  |  |  |  | Ka (Tubulin (Homo sapiens)): 4 ×10⁵ /M
COc1cccc(OC)c1NC(C)=C1C(=O)CC(c2ccccc2)CC1=O (stereo not drawn) | 1.1 | 0.46 | 1 | 1.4 | 1.2 | 1.4 | 
COc1cccc(C2CC(=O)C(=C(C)Nc3ccccc3OC)C(=O)C2)c1 (stereo not drawn) | 0.69 | 0.23 | 0.21 | 0.24 | 0.41 | 0.3 | Ka (Tubulin (Bos taurus) [6]): 7.5 ×10⁶ /M; inhibition (Tubulin (Bos taurus) [7]): Active
CCC(Nc1cccc(O)c1)=C1C(=O)CC(c2ccccc2)CC1=O (stereo not drawn) | 75 | 7.8 | 15 | 48 | 12 | 13 | 
CC(Nc1cccc(F)c1F)=C1C(=O)CC(c2ccccc2)CC1=O (stereo not drawn) | 36 | 14 | 19 | 25 | 12 | 10 | 
CCCC(Nc1ccccc1OC)=C1C(=O)CC(c2ccccc2)CC1=O (stereo not drawn) | 59 | 16 | 36 | 41 | 27 | 31 | 
COc1ccc(C2CC(=O)C(=C(C)Nc3ccccc3OC)C(=O)C2)cc1 (stereo not drawn) | > 100 | > 100 | > 100 | > 100 | > 100 | > 100 | 
COc1ccccc1NC(C)=C1C(=O)CC(c2ccc(C)cc2)CC1=O (stereo not drawn) | 90 | 8.4 | > 100 | > 100 | 9.2 | 11 | 
CC(Nc1c(F)cccc1F)=C1C(=O)CC(c2ccccc2)CC1=O (stereo not drawn) | 17 | 8.4 | 11 | 21 | 9.2 | 6.6 | 
CC(Nc1ccccc1Cl)=C1C(=O)CC(c2ccccc2)CC1=O (stereo not drawn) | 0.71 | 0.29 | 0.7 | 0.64 | 0.47 | 0.56 | 
COc1cc2c(c(OC)c1OC)-c1ccc(OC)c(=O)cc1[C@@H](NC(C)=O)CC2 [COLCHICINE] |  | 0.0069 | 0.01 |  | 0.031 |  | Activity [8]: Active; inhibition (MDA-MB-231 [9]): Active; Activity [10]: Active; Activity (MDA-MB-231 [11]): Active; inhibition (MDA-MB-231 [12]): Active; inhibition (MDA-MB-231 [13]): Active; Activity (HMEC-1): Active
